Laboratory results from patent US11457625B1, “Tuning a broad acting antimicrobial textile to act as a narrow spectrum antimicrobial textile” (priority 2018, dated 2022).
No end group written: not given here.

How the values were obtained:
[1] = test system: Staphylococcus aureus; test: Testing swatches for binding and antimicrobial activity (strain not distinguished); assay type: cell-based; conditions: for colonies counted (cells recovered from swatch), S. aureus: Cj peptide attached to swatches
Experimental: (§1) Peptides were synthesized at New England peptides with the linker sequence of GGSGGS or GGSGG on the N terminal (Table 1). Textile swatches of cotton or cotton-nylon blends were cut to 1 cm circles and the surface hydroxyls were converted to carboxyl by submerging the swatches 1 hour with agitation at 300 rpm in 25 mL of citric acid buffer (7% citric acid, 5% Sodium Hypophosphate monohydrate). (Synthetic material such as nylon and polyester require a pretreatment with sodium hydroxide before the citric acid buffer is added) To cure the reaction, the swatches were heated in a microwave for 2 minutes. After curing, swatches were washed the in 25 mL of deionized water for 5 min. The swatches were activated by submerging in 30 mL of EDC solution (0.6372 g in 30 mL 200 mM monobasic sodium phosphate buffer pH) and incubating for 45 minutes with 300 rpm agitation. After incubation, swatches were rinsed in 25 mL 20 mM sodium phosphate buffer pH 7.2 for 5 minutes. During the wash, 5 ml peptide samples were prepare from a 2 mg/ml stock of peptide in 20 mM sodium phosphate solution at concentrations of […] 1.25 mg/g peptide. […] Each solution was added to one well of a six well microtiter plate. […] Swatches were washed in 20 mM phosphate buffer for 5 min, then wash for 5 min in water twice and allowed to air dry.
(§2) Inoculation took place using an 8 ml overnight cultures for each target microorganisms in appropriate media. For Staphylococcus aureus, Staphylococcus epidermidis and Pseudomonas aeruginosa cultures were grown on Nutrient broth. For Corynebacterium jeikieson the media was Brain Heart Infusion supplemented with 0.1% Tween 80 and for Micrococcus luteus the media was Brain Heart Infusion media. The OD for each culture was taken and diluted to an OD of 1 using appropriate growth media. For each culture a 1 mL aliquot was taken and transfer to a clean 2 mL eppendorf tube. The tubes were placed into a micro centrifuge and spun at 10,000 G until a pellet has formed. The media was aspirated without disturbing the pellet and the pellet was re-suspend in 1 mL of 0.125× Nutrient Broth with 0.15% Triton X-100. This was repeated to wash pellets. The pellet was re-suspend in 1 ml of 0.125× Nutrient Broth with 0.15% Triton X-100 and the above centrifugation was performed again. After last wash, the pellet was re-suspended in 1 ml of 0.125× Nutrient Broth with 0.15% Triton X-100 then added to 8 mL of 0.125× Nutrient Broth with 0.15% Triton X-100. […] The inoculum was enumerated by adding 500 ul into 4.5 ml of PBS and serial diluting 7 more times. Counts were taken by spread plating only 10^−6, 10^−7 and 10^−8.
(§3) Swatches prepared previously were inoculated with 25 ul of the inoculum (scoured samples will be used as a negative control). The inoculated swatches were incubated for 24 hr at 37° C. in a sealed tube. To analyze binding, the swatches were placed into 2.5 ml modified DE broth and vortex for 5 min. The modified DE broth was serial diluted 10^−3 by adding 500 ul to 4.5 ml phosphate buffer. The dilution was spread plated onto the appropriate growth media (mannitol salts for Staphylococcus aureus, nutrient agar for Staphylococcus epidermidis, Cetrimide agar for Pseudomonas aeruginosa, Brain heart infusion for Micrococcus luteus and Brain Heart infusion with 0.1% Tween 80 for Corynebacterium jeikeium) and incubate overnight.
These concentration were chosen based upon result from previously described experiments. The treated fabric was evaluated against two different strains of Staphylococcus aureus (Table 5). […] A follow up experiment provide additional evidence for this possibility.
(§4) An experiment was run using the same two Staphylococcus aureus strains 27217 and 25923 with the addition of Staphylococcus epidermidis. […]

[2] = test system: S. epidermidis 12228; test: Testing swatches for binding and antimicrobial activity; assay type: cell-based, Staphylococcus epidermidis; conditions: for colonies counted (cells recovered from swatch), S. epidermidis: Cj peptide attached to swatches
Experimental: as §1, §2, §3, §4
(§5) The six potential peptides were attached to swatches and exposed to Corynebacterium jeikeium, Micrococcus luteus, Staphylococcus epidermidis, Staphylococcus aureus and Pseudomonas aeruginosa.

[3] = test system: Pseudomonas aeruginosa; test: as above; assay type: cell-based; conditions: for colonies counted (cells recovered from swatch), P. aeruginosa: Cj peptide attached to swatches
Experimental: as §1, §2, §3
Pseudomonas aeruginosa was examined using concentrations based upon the textile MIC.
as §5

[4] = test system: Corynebacterium jeikeium; test: as above; assay type: cell-based; conditions: peptide attached to swatches
Experimental: as §1, §2, §3, §5

[5] = test system: Micrococcus luteus; test: as above; assay type: cell-based; conditions: peptide attached to swatches
Experimental: as §1, §2, §3, §5

[6] = test system: S aureus 27217; test: as above; assay type: cell-based, Staphylococcus aureus; conditions: PHMB 0%, 24 hr 37° C.
Experimental: as §1
as §2, with “Counts were taken by spread plating only 10^−6, 10^−7 and 10^−8.” left out
(§6) These concentration were chosen based upon result from previously described experiments. The treated fabric was evaluated against two different strains of Staphylococcus aureus (Table 5). […]

[7] = test system: S. aureus 25923; test: as above; assay type: cell-based, Staphylococcus aureus; conditions: PHMB 0%, 24 hr 37° C.
Experimental: as §1
as §2, with “Counts were taken by spread plating only 10^−6, 10^−7 and 10^−8.” left out
as §6

Sequence: GGSGGGWWNSWGKCV (MICROCOCCUS LUTEUS and CORYNEBACTERIUM JEIKIEUM) [Cj 5]
- colonies counted (cells recovered from swatch), S. aureus [1]: 4195000
- colonies counted (cells recovered from swatch), S. epidermidis [2]: 337000
- colonies counted (cells recovered from swatch), P. aeruginosa [3]: TNTC
- colonies counted (cells recovered from swatch), C. Jeikeium [4]: 0
- colonies counted (cells recovered from swatch), M luteus [5]: 0

Sequence: GGSGGIGGVSGGLTG (MICROCOCCUS LUTEUS and CORYNEBACTERIUM JEIKIEUM) [Cj 6]
- colonies counted (cells recovered from swatch), S. aureus [1]: 5980000
- colonies counted (cells recovered from swatch), S. epidermidis [2]: 122000
- colonies counted (cells recovered from swatch), P. aeruginosa [3]: 175000
- colonies counted (cells recovered from swatch), C. Jeikeium [4]: 0
- colonies counted (cells recovered from swatch), M luteus [5]: 0

Sequence: GGSGGNGVVLTL (MICROCOCCUS LUTEUS and CORYNEBACTERIUM JEIKIEUM) [Cj 1]
- colonies counted (cells recovered from swatch), S. aureus [1]: 6055000
- colonies counted (cells recovered from swatch), S. epidermidis [2]: 65500
- colonies counted (cells recovered from swatch), P. aeruginosa [3]: 40000
- colonies counted (cells recovered from swatch), C. Jeikeium [4]: 175
- colonies counted (cells recovered from swatch), M luteus [5]: 0

Sequence: GGSGGNRWWQGVVP (MICROCOCCUS LUTEUS and CORYNEBACTERIUM JEIKIEUM) [Cj3]
- colonies counted (cells recovered from swatch), S. aureus [1]: 7040000
- colonies counted (cells recovered from swatch), S. epidermidis [2]: 121500
- colonies counted (cells recovered from swatch), P. aeruginosa [3]: 27000
- colonies counted (cells recovered from swatch), C. Jeikeium [4]: 300
- colonies counted (cells recovered from swatch), M luteus [5]: 0

Sequence: GGSGGSKKHRKHRKHRKH (also: bound to textile) [pep]
- CFU ([3]; 2.5 mg/ml pep, 0% PHMB): 0 CFU

Sequence: GGSGGSWQHVFT (MICROCOCCUS LUTEUS and CORYNEBACTERIUM JEIKIEUM) [Cj 4]
- colonies counted (cells recovered from swatch), S. aureus [1]: 5315000
- colonies counted (cells recovered from swatch), S. epidermidis [2]: 145000
- colonies counted (cells recovered from swatch), P. aeruginosa [3]: 28000
- colonies counted (cells recovered from swatch), C. Jeikeium [4]: 245
- colonies counted (cells recovered from swatch), M luteus [5]: 0

Sequence: GGSGGSYSTCDFIM (STAPHYLOCOCCUS AUREUS) [Peptide]
- colonies counted (cells recovered from swatch) ([6]; peptide 1.75 mg/g): 475000
- colonies counted (cells recovered from swatch) ([6]; peptide 2.5 mg/ml): 0
- colonies counted (cells recovered from swatch) ([7]; peptide 1.75 mg/g): 4765000
- colonies counted (cells recovered from swatch) ([7]; peptide 2.5 mg/ml): 0
- lowest peptide concentration that will bind the cells ([1]; both strains): 2.5 mg/mL
- binding of cells (in words) ([1]; both strains, peptide 2.5 mg/ml regardless of the PHMB concentration): completely bound all of the cells
- binding of cells (in words) ([1]; lower peptide concentrations (below 2.5 mg/ml)): may have bound some of the cells, but not all of them
- cells recovered (in words) ([1]; strains 27217 and 25923, peptide present (2.5 mg/ml), PHMB 0 or 0.0008%): no Staphylococcus aureus cell were recovered
- binding by the peptide (in words) ([2]; S. aureus-binding peptide 2.5 mg/ml): does not appear to be any binding
- colonies counted (cells recovered from swatch) ([2]; S. aureus-binding peptide 2.5 mg/ml, PHMB 0%): 693000

Sequence: GGSGGTWTKKLK (MICROCOCCUS LUTEUS and CORYNEBACTERIUM JEIKIEUM) [Cj2]
- colonies counted (cells recovered from swatch), S. aureus [1]: 7680000
- colonies counted (cells recovered from swatch), S. epidermidis [2]: 294000
- colonies counted (cells recovered from swatch), P. aeruginosa [3]: TNTC
- colonies counted (cells recovered from swatch), C. Jeikeium [4]: 0
- colonies counted (cells recovered from swatch), M luteus [5]: 0
